From patent US20240109853A1 (Shanghai Yao Yuan Biotechnology Co., Ltd., priority 2020, published 2024)

Columns and labels:
[1] = test system: ALPK1-dependent NFκB reporter gene activation in HEK293 cells stably expressing an NF-kB reporter (G9 cells); assay: NFκB gene reporter alkaline phosphatase assay; assay type: cell-based; conditions: Homo sapiens, HEK293; read-out: NFkB assay IC50
From the text: In embodiments, a compound of Formula I, or a subembodiment described herein, is an inhibitor of ALPK1 as measured, for example, in an in vitro kinase assay, or an assay designed to measure the activation of downstream targets of ALPK1 pathway activation, for example NFkB transcriptional activation and the secretion of proinflammatory cytokines and chemokines, such as IL-8, which is also referred to as CXCL-8. In general, the computer program XL fit was used for data analysis, including non-linear regression analysis. The half maximal inhibitory concentration (IC50) was used as the measure of a compound's effectiveness in the assays. IC50 values were determined using the following logistic equation Y=min+(max−min)/(1+(X/IC50^−hillslpoe), where Y is the value at the compound concentration, X. The concentration response curve fitting was conducted using GraphPad Prism version 6.00 software.
An alkaline phosphatase reporter assay system was used to measure inhibition of ALPK1-dependent NFκB reporter gene activation. Briefly, HEK293 cells stably expressing an NF-kB reporter (referred to herein as “G9 cells”) were maintained in DMEM as described above. For the assay, cells were seeded into 96-well plates at a density of 10,000 cells/well in Freestyle™ 293 Expression Medium (ThermoFisher), and allowed to attach overnight. Cells were pretreated with serially diluted compounds for 30 min and then stimulated with D-glycero-D-manno-6-fluoro-heptose-1β-S-ADP. […] NFkB gene activation was detected using the chromogenic substrate, para-nitrophenyl phosphate (pNPP) according to the manufacturer's protocols (pNPP Phosphatase Assay, Beyotime Biotechnology).

ALPK1 = ALPK1 (Homo sapiens (Human), UniProt Q96QP1); assay: ALPK1 in vitro kinase assay (HTRF of TIFA phosphorylation); assay type: biochemical
ALPK1, sequence (Q96QP1 whole entry): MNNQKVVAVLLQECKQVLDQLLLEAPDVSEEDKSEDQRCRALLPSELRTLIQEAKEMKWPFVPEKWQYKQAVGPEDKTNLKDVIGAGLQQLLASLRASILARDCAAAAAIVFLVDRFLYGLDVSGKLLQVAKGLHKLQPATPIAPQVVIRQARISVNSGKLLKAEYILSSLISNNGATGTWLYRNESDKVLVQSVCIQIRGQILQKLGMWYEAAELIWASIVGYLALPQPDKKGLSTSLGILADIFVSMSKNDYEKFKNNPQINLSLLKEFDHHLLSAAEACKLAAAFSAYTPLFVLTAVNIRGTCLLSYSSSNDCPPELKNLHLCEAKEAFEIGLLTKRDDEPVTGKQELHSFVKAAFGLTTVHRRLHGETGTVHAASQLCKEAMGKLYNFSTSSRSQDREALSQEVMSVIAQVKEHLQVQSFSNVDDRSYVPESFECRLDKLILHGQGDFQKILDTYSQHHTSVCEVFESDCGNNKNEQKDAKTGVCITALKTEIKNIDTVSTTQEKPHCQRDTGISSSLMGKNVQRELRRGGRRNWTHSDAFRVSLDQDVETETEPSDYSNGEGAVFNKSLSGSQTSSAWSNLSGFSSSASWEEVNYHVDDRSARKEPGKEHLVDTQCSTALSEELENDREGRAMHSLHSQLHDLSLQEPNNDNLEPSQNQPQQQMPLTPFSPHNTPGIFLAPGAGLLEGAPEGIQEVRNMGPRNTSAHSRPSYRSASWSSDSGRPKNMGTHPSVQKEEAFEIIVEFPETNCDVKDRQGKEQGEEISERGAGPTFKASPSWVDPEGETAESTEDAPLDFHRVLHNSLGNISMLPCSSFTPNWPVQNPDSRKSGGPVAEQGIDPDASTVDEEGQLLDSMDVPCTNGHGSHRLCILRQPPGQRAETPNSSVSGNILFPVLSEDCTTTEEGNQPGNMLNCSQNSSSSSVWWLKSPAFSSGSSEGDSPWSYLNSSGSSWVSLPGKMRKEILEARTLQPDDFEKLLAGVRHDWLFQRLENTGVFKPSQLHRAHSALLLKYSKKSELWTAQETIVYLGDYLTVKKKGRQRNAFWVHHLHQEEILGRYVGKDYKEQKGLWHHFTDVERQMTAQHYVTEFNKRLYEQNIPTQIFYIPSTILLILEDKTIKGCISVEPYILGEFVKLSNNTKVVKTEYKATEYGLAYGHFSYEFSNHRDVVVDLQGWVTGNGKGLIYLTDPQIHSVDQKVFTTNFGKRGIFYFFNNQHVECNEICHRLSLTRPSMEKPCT

| Compound | IC50 [1] | IC50 (ALPK1) |
| --- | --- | --- |
| C#CC(C)(c1ccc(Br)cc1)c1csc(NC(=O)N2CC(O)C2)n1 (centres unmarked) [Example A153, N-(4-(2-(4-bromophenyl)but-3-yn-2-yl)thiazol-2-yl)-3-hydroxyazetidine-1-carboxamide] | 370 nM | 76 nM |
| C#C[C@@](C)(c1ccc(Cl)cc1)c1csc(NC(=O)NC(C)(C)CO)n1 (stereo in doubt) [Example A294, 1-(4-(2-(4-chlorophenyl)but-3-yn-2-yl)thiazol-2-yl)-3-(1-hydroxy-2-methylpropan-2-yl)urea] | 3040 nM | 285 nM |
| COc1ccc(C(C)(C)c2csc(NC(=O)NCc3ccc(NC4CCNCC4)cc3)n2)cc1 [Example A041, 1-(4-(2-(4-methoxyphenyl)propan-2-yl)thiazol-2-yl)-3-(4-(piperidin-4-ylamino)benzyl)urea] | 1860 nM | 23 nM |
| COc1ccc(C(C)(C)c2csc(NC(=O)NCCOCCN3CCC(N)C3)n2)cc1 (centres unmarked) [Example A072, 1-(2-(2-(3-aminopyrrolidin-1-yl)ethoxy)ethyl)-3-(4-(2-(4-methoxyphenyl)propan-2-yl)thiazol-2-yl)urea] | 1450 nM | 143 nM |
| CC(C)(c1ccc(Br)cc1)c1csc(NC(=O)NCCS(C)(=O)=O)n1 [Example A066, 1-(4-(2-(4-bromophenyl)propan-2-yl)thiazol-2-yl)-3-(2-(methylsulfonyl)ethyl)urea] | 10500 nM | 126 nM |
| COc1ccc(C(C)(C)c2csc(NC(=O)NCc3ccc(N4CCC(N(C)C)C4)nc3)n2)cc1 (centres unmarked) [Example A011, 1-((6-(3-(dimethylamino)pyrrolidin-1-yl)pyridin-3-yl)methyl)-3-(4-(2-(4-methoxyphenyl)propan-2-yl)thiazol-2-yl)urea] | 1370 nM | 49 nM |
| C#CC(C)(c1ccc(Cl)cc1)c1csc(NC(=O)NCCS(N)(=O)=O)n1 (centres unmarked) [Example A243, 2-(3-(4-(2-(4-chlorophenyl)but-3-yn-2-yl)thiazol-2-yl)ureido)ethane-1-sulfonamide] | 590 nM | 23 nM |
| CC(C)(c1ccc(Br)cc1)c1csc(NC(=O)NCCCCN)n1 [Example A028, 1-(4-aminobutyl)-3-(4-(2-(4-bromophenyl)propan-2-yl)thiazol-2-yl)urea] | 2560 nM | 53 nM |
| COc1ccc(C(C)(C)c2csc(NC(=O)NCc3ccc(N4CCNCC4)c(C(N)=O)c3)n2)cc1 [Example A060, 5-((3-(4-(2-(4-methoxyphenyl)propan-2-yl)thiazol-2-yl)ureido)methyl)-2-(piperazin-1-yl)benzamide] | 4800 nM | 8 nM |
| CNC(=O)c1cc(CNC(=O)Nc2nc(C(C)(C)c3ccc(OC)cc3)cs2)ccc1N1CCNCC1 [Example A065, 5-((3-(4-(2-(4-methoxyphenyl)propan-2-yl)thiazol-2-yl)ureido)methyl)-N-methyl-2-(piperazin-1-yl)benzamide] | 4440 nM | 30 nM |
| CC(C)(c1ccc(Br)cc1)c1csc(NC(=O)NCc2ccc(N3CCNCC3)c(F)c2)n1 [Example A050, 1-(4-(2-(4-bromophenyl)propan-2-yl)thiazol-2-yl)-3-(3-fluoro-4-(piperazin-1-yl)benzyl)urea] | 1210 nM | 26 nM |
| CC(C)(c1ccc(Br)cc1)c1csc(NC(=O)NCCCO)n1 [Example A126, 1-(4-(2-(4-bromophenyl)propan-2-yl)thiazol-2-yl)-3-(3-hydroxypropyl)urea] | 2960 nM | 88 nM |
| C#CC(C)(c1ccc(Cl)cc1)c1csc(NC(=O)N(CCO)CCO)n1 (centres unmarked) [Example A253, 3-(4-(2-(4-chlorophenyl)but-3-yn-2-yl)thiazol-2-yl)-1,1-bis(2-hydroxyethyl)urea] | 3050 nM | 172 nM |
| CC(C)(c1ccc(Br)cc1)c1csc(NC(=O)NCc2cnc(NCCO)nc2)n1 [Example A119, 1-(4-(2-(4-bromophenyl)propan-2-yl)thiazol-2-yl)-3-((2-((2-hydroxyethyl)amino)pyri-midin-5-yl)methyl)urea] | 4430 nM | 36 nM |
| C#CC(C)(c1ccc(Br)cc1)c1csc(NC(=O)NCC(O)CO)n1 (centres unmarked) [Example A156, 1-(4-(2-(4-bromophenyl)but-3-yn-2-yl)thiazol-2-yl)-3-(2,3-dihydroxypropyl)urea] | 380 nM | 22 nM |
| CC(C)(c1ccc(Br)cc1)c1csc(NC(=O)NCc2cncnc2)n1 [Example A004, 1-(4-(2-(4-bromophenyl)propan-2-yl)thiazol-2-yl)-3-(pyrimidin-5-ylmethyl)urea] | 2030 nM | 240 nM |

| Compound | IC50 [1] | IC50 (ALPK1) |
| --- | --- | --- |
| C#C[C@@](C)(c1ccc(Cl)cc1)c1csc(NC(=O)NCC2(O)CNC2)n1 (stereo in doubt) [Example A287, 1-(4-(2-(4-chlorophenyl)but-3-yn-2-yl)thiazol-2-yl)-3-((3-hydroxyazetidin-3-yl)methyl)urea] | 4400 nM | 130 nM |
| CCCN1CCN(c2ccc(CNC(=O)Nc3nc(C(C)(C)c4ccc(OC)cc4)cs3)cc2C(N)=O)CC1 [Example A116, 5-((3-(4-(2-(4-methoxyphenyl)propan-2-yl)thiazol-2-yl)ureido)methyl)-2-(4-propylpiperazin-1-yl)benzamide] | 720 nM | 72 nM |
| COc1ccc(C(C)(C)c2csc(NC(=O)NCc3ccc(NCCN)cc3)n2)cc1 [Example A183, 1-(4-((2-aminoethyl)amino)ben-yzl)-3-(4-(2-(4-methoxyphenyl)propan-2-yl)thiazol-2-yl)urea] | 2310 nM | 52 nM |
| C#C[C@@](C)(c1ccc(F)cc1)c1csc(NC(=O)NCCS(N)(=O)=O)n1 [Example A285, 2-(3-(4-(2-(4-fluorophenyl)but-3-yn-2-yl)thiazol-2-yl)ureido)ethanesulfona-mide] | 1360 nM | 350 nM |
| C#CC(C)(c1ccc(Br)cc1)c1csc(NC(N)=O)n1 (stereo in doubt) [Example A164, (R)-1-(4-(2-(4-bromophenyl)but-3-yn-2-yl)thiazol-2-yl)urea] | 590 nM | 17 nM |
| O=C(Nc1nc(C2(c3ccc(Br)cc3)CCCC2)cs1)N1CC(c2ccc(N3CCNCC3)c(F)c2)C1 [Example A236, N-(4-(1-(4-bromophenyl)cyclopent-yl)thiazol-2-yl)-3-(3-fluoro-4-(piperazin-1-yl)phenyl)azetidine-1-carboxamide] | 4500 nM | 13 nM |
| C#C[C@@](C)(c1ccc(OC)cc1)c1csc(NC(=O)N2CC(CO)C2)n1 [Example A256, (S)-3-(hydroxymethyl)-N-(4-(2-(4-methoxyphenyl)but-3-yn-2-yl)thiazol-2-yl)azetidine-1-carboxamide] | 14300 nM | 273 nM |
| CC(C)(c1ccc(C2CC2)cc1)c1csc(NC(=O)NCc2ccc(N3CCNCC3)cc2)n1 [Example A025, 1-(4-(2-(4-cyclopropylphenyl)propan-2-yl)thiazol-2-yl)-3-(4-(piperazin-1-yl)benzyl)urea] | 8580 nM | 334 nM |
| COc1ccc(C(C)(C)c2csc(NC(=O)NCc3ccc(N4CCC(N)C4)cn3)n2)cc1 (centres unmarked) [Example A200, 1-((5-(3-aminopyrrolidin-1-yl)pyridin-2-yl)methyl)-3-(4-(2-(4-methoxyphenyl)propan-2-yl)thiazol-2-yl)urea] | 520 nM | 43 nM |
| COc1ccc(C(C)(C)c2csc(NC(=O)NCc3cc(F)c(N4CCC(N)C4)c(F)c3)n2)cc1 (centres unmarked) [Example A201, 1-(4-(3-aminopyrrolidin-1-yl)-3,5-difluorobenzyl)-3-(4-(2-(4-methoxyphenyl)propan-2-yl)thiazol-2-yl)urea] | 530 nM | 25 nM |
| CC(c1ccc(Br)cc1)c1csc(NC(=O)NCc2ccc(N3CCNCC3)cc2)n1 (centres unmarked) [Example A044, 1-(4-(1-(4-bromophenyl)ethyl)thiazol-2-yl)-3-(4-(piperazin-1-yl)benzyl)urea] | 1110 nM | 147 nM |
| COc1ccc(C(C)(C)c2csc(NC(=O)NCc3ccc(NC4CCN(C)CC4)nc3)n2)cc1 [Example A019, 1-(4-(2-(4-methoxyphenyl)propan-2-yl)thiazol-2-yl)-3-((6-((1-methylpiperidin-4-yl)amino)pyridin-3-yl)methyl)urea] | 1290 nM | 32 nM |
| C#CC(C)(c1ccc(Br)cc1)c1csc(NC(=O)NCCO)n1 (centres unmarked) [Example A159, 1-(4-(2-(4-bromophenyl)but-3-yn-2-yl)thiazol-2-yl)-3-(4-hydroxyethyl)urea] | 490 nM | 48 nM |
| CC(C)(c1ccc(Br)cc1)c1csc(NC(=O)NCc2ccc(OCCN3CCNCC3)cc2)n1 [Example A034, 1-(4-(2-(4-bromophenyl)propan-2-yl)thiazol-2-yl)-3-(4-(2-(piperazin-1-yl)ethoxy)benzyl)urea] | 730 nM | 114 nM |
| C#CC(C)(c1ccc(Cl)cc1)c1csc(NC(=O)N2CCC(N)CC2)n1 (centres unmarked) [Example A265, 4-amino-N-(4-(2-(4-chlorophenyl)but-3-yn-2-yl)thiazol-2-yl)piperidine-1-carboxamide] | 2900 nM | 4970 nM |
